Measurements from paper PMC7275090, “Mode of action of teixobactins in cellular membranes” (Nature Communications, 2020).
Bridge positions count the residues as written; N and C are the ends. Square brackets hold non-standard residues; d marks the D form. Ends that are not written are not given here. d(aIle) = CC[C@H](C)[C@@H](N)C(=O)O; dNMeF = CN[C@H](Cc1ccccc1)C(=O)O

Columns and labels:
[1] = Fluorescence microscopy of GUVs doped with NBD-labelled Lipid II (Lipid II clustering); details: 1 μM peptide, 4 h
Protocol: GUVs were prepared using the electroformation method. The GUV cell is a self-assembled system which consists of a 5 mm-thick Teflon plate which is aligned with two titanium electrodes in a closed Teflon chamber. 1.5 μL of 0.5 mM DOPC doped with NBD-labelled Lipid II (0.1 mol%) were brushed on the electrodes. Next, the chamber was filled with 350 μL 0.1 M sucrose solution; the electrodes dipped in and then connected to a power supply which generated a sine wave of voltage 2.5 V at a frequency of 10 Hz for 90 min. Each microscopy slide (μ-slide 8 well, Ibidi) was covered with 350 μL BSA solution (1 mg/mL). To detach the GUVs from the electrodes the power supply was changed to square wave of voltage 2 V at a frequency of 2 Hz for 15 min. The slides were immersed in 300 μL 0.1 mM glucose solution to which 80 μL of GUVs were added. These were incubated for 4 h with 1 μM [R4L10]-teixobactin and observed by confocal microscopy. Anionic GUVs were prepared using a homemade electroformation setup with ITO coverslips (18 × 18 mm, 15–30 Ω, SPI supplies). On both slips, 3 μL of a chloroform–methanol (1:1, vol/vol) solution containing 1 mM of a 3:1 mixture of DOPC:DOPG (mol/mol) and 0.1 mol% NBD-labelled Lipid II was deposited and dried in a vacuum desiccator. With these slips, the electroformation chamber was assembled and filled with 0.1 M sucrose solution. The GUV cell was connected to the power supply and an alternating current applied (1 V, 10 Hz). GUV formation was carried out overnight.
Microscopy: GUVs were imaged using Zeiss LSM 880 with ×63/1.2NA glycerol objective lens. The NBD label appeared green upon excitation by the 488 nm laser. The emission range for detection was 530–545 nm (λem peak = 539 nm). The brightfield images were used for detection and location of the GUVs without a fluorescent signal and also as a control to observe their shape.

[2] = Isothermal titration calorimetry: LUVs containing Lys-Lipid II titrated into [R4L10]-teixobactin; format: binding; details: neutral DOPC membranes, LUVs 2% (mol/mol) Lys-Lipid II, citrate phosphate buffer pH ~6, 37 °C, 65 μM peptide in cell; read-out: equilibrium dissociation constant Kd
Protocol: Preparation of liposomes: For ITC measurements large unilamellar vesicles (LUVs) containing Lys-Lipid II were prepared by incorporating 2% (mol/mol) of Lys-Lipid II in DOPC from the stock solution. The lipids were dried by nitrogen stream and hydrated with 10 mM HEPES, 150 mM NaCl, pH 7.5 buffer to a lipid-phosphate concentration of ~20 mM. LUVs were obtained after 10 rounds of extrusion through 200 nm membrane filters (Whatman Nuclepore, Track-Etch Membranes). The liposomes were dialysed to citrate phosphate buffer (100 mM NaCl, 50 mM citric acid, 100 mM Na2HPO4, pH ~6). Anionic LUVs were prepared by mixing 25% (mol/mol) DOPG and 75% (mol/mol) DOPC and then incorporating 2% (mol/mol) Lys-Lipid II. All other steps were the same as for zwitterionic LUVs.
ITC was performed with the Low Volume NanoITC (Waters LLC, New Castle, DE, USA) to determine interaction between LUVs and [R4L10]-teixobactin. [R4L10]-teixobactin was diluted in a citrate phosphate buffer (100 mM NaCl, 50 mM citric acid, 100 mM Na2HPO4, pH ~6) to a final concentration of 65 μM. Samples were degassed before use. The chamber was filled with 164 μL of [R4L10]-teixobactin, and the LUVs were titrated into the chamber at a rate of 1.96 μL/300 s with a stirring rate of 300 rpm. Experiments were performed at 37 °C and analysed using the Nano Analyse Software (Waters LLC). […]

[3] = ssNMR 15N T1rho relaxation (dynamics of bound teixobactin), mDAP-Lipid II; details: 950 MHz, 60 kHz MAS
Protocol: Relaxation studies: ^1H-detected ^15N T1rho relaxation experiments were carried out at 950 and 700 MHz magnetic field, respectively, using 60 kHz MAS[51]. The ^15N transverse magnetization decay was probed with a ^15N spinlock field of 17.5 kHz. For the bulk, we measured the intensity of the most intense signal at ~8.80 ^1H ppm. T1rho trajectories were fit to single exponentials.
Lipid I or II-doped multi-laminar vesicle preparations: DOPC or DOPG lipids were mixed with Lipid I or II in 1:1 MeOH:CHCl3 at the final Lipid I or II molar ratio (0–4 mol%/mol). The mixtures were dried and the lipid films were hydrated by vortexing with 2 mL of a teixobactin solution in 40 mM phosphate, 25 mM NaCl, pH 7.0.
SSNMR samples: MLVs were collected by centrifugation (20,000×g) and loaded into ssNMR rotors. For 3.2 mm rotors, we used 800 nmol of antibiotic with unlabelled Lipid II or I, while we used 400 nmol with labelled Lipid II. For 1.3 mm rotors, samples contained 200 nmol of antibiotic for unlabelled Lipid II or I, while we used 100 nmol for labelled Lipid II. For all ssNMR samples, we used 4 mol%/mol Lipid II or I in the MLVs.

[4] = 2D 15N1H ssNMR of bound teixobactin, mDAP-Lipid II vs Lys-Lipid II; format: binding; details: DOPC liposomes
Protocol: (§1) 1D, 2D, and 3D ^1H-detected experiments were performed at 60 kHz MAS frequency using magnetic fields of 16.4, 18.8, and 22.2 T (700, 800, and 950 MHz ^1H-frequency) at temperatures of 305 K. All ^1H-detected experiments were dipolar-based. PISSARRO low-power decoupling[47] was used during detection periods. 2D ^13C^13C spin diffusion experiments were performed with PARISxy[48] recoupling at 950 MHz and 15.5, 17, or 18 kHz MAS frequency at 270 K temperature using mixing times of 25–1000 ms. SPINAL64[49] was used in detection periods. The 2D scalar ^13C^13C TOBSY[50] experiment was acquired at 950 MHz with 8 kHz MAS at 295 K temperature with 6 ms ^13C–^13C magnetization transfer time. Chemical shift assignments were performed using standard ^1H-detected 3D CANH and CONH experiments[36],[51] in combination with 2D ^13C^13C PARISxy[48] experiments with different magnetization transfer times (see Supplementary Tables 1 and 2). DNP-enhanced 2D ^13C^13C spin diffusion (20 ms mixing time) ssNMR experiments[52] were carried out using a 263 GHz microwave frequency, 400 MHz ^1H frequency setup (Bruker Biospin) at 100 K temperature and 8.5 kHz MAS.
(§2) Lipid I or II-doped multi-laminar vesicle preparations: DOPC or DOPG lipids were mixed with Lipid I or II in 1:1 MeOH:CHCl3 at the final Lipid I or II molar ratio (0–4 mol%/mol). […]

[5] = 2D 15N1H ssNMR of bound teixobactin, Lys-Lipid I; format: binding; details: DOPC liposomes; clear signal changes in the ring motif
Protocol: as §1, §2

[6] = Mobility-edited ssNMR: membrane topology of Lipid II-bound teixobactin; details: 2D 1H(1H)13C, 700 MHz, 300 K
Protocol: Topological studies: The mobility-edited 2D ^1H(^1H)^13C experiment[22] was performed at 700 MHz with 16.5 kHz MAS at 300 K temperature using a T2 relaxation filter of 2.5 ms. After dephasing of the rigid signals, magnetization from mobile lipid and water molecules was transferred to the rigid antibiotic with 5 ms ^1H–^1H mixing, and subsequently transferred to ^13C nuclei of [R4L10]-teixobactin with a short (200 μs) cross-polarization step.

[7] = bound to mDAP-Lipid II in DOPC (DAP-LII_PC)
[8] = bound to mDAP-Lipid II in DOPG (DAP-LII_PG)

Question: What does the source list for “D-Arg4-Leu10-teixobactin ([dNMeF]IS[dR][d(aIle)]IS[dT]ALI; ester 8-C; also: 13C,15N labels at Ile2, Ser3, Ile6, Ser7 and one Ala (residue not fully stated)) [[R4L10]-teixobactin, teixobactin analogue in which D-Gln4 and L-allo-enduracididine10 are replaced by D-Arg4 and L-Leu10]”?
Answer: Lipid II segregation into clusters on GUVs ([1]; DOPC GUVs, 0.1 mol% NBD-Lipid II): Lipid II segregated into μm-sized clusters; vesicle integrity and morphology after incubation ([1]; DOPC GUVs, brightfield images, cluster sites show slight membrane deformations): morphology is maintained; Clustering of Lipid II in anionic membranes ([1]; anionic GUVs 1:3 DOPG:DOPC (mol/mol), 0.1 mol% NBD-Lipid II): clearly visible; Kd [2]: 0.17 µM; Bulk 15N R1rho [3, 7]: 22.15 s⁻¹; Bulk 15N T1rho [3, 7]: 45.14 ms; Bulk 15N R1rho [3, 8]: 36.17 s⁻¹; Bulk 15N T1rho [3, 8]: 27.65 ms; ssNMR spectra bound to Lys-Lipid II vs mDAP-Lipid II [4]: gave the same ssNMR spectra; binding to Lys-Lipid I [5]: also able to bind Lys-Lipid I; membrane localization of Lipid II-bound peptide [6]: localizes at the water–membrane interface with the non-polar residues Ile2 and Ile6 partitioned in the bilayer
